Laboratory results as given in ChEMBL document CHEMBL1144080, “Antihyperglycemic sesquiterpenes from Psacalium decompositum” (1999).

Assays:
Assay type in all cases: functional
Mus musculus [1] = assay: Antihyperglycemic activity in C57BL-6J ob/ob mouse type 2 diabetic model assessed as changes in plasma glucose level at 1.5 mmol/kg, po administered as single dose for 3 hrs
Mus musculus [2] = assay: Antihyperglycemic activity in C57BL-6J ob/ob mouse type 2 diabetic model assessed as changes in plasma glucose level at 1.5 mmol/kg, po administered as single dose for 24 hrs
Mus musculus [3] = assay: Antihyperglycemic activity in C57BL-6J ob/ob mouse type 2 diabetic model assessed as food intake per mouse at 1.5 mmol/kg, po administered as single dose
Mus musculus [4] = assay: Antihyperglycemic activity in C57BL-6J ob/ob mouse type 2 diabetic model assessed as body weight per mouse at 1.5 mmol/kg, po administered as single dose for 24 hrs
Mus musculus [5] = assay: Antihyperglycemic activity in C57BL-6J ob/ob mouse type 2 diabetic model assessed as food intake per mouse at 1.09 mmol/kg, po administered as single dose
Mus musculus [6] = assay: Antihyperglycemic activity in C57BL-6J ob/ob mouse type 2 diabetic model assessed as changes in plasma glucose level at 1.09 mmol/kg, po administered as single dose for 3 hrs
Mus musculus [7] = assay: Antihyperglycemic activity in C57BL-6J ob/ob mouse type 2 diabetic model assessed as changes in plasma glucose level at 1000 mg/kg, po administered as single dose for 24 hrs
Mus musculus [8] = assay: Antihyperglycemic activity in C57BL-6J ob/ob mouse type 2 diabetic model assessed as body weight per mouse at 1.09 mmol/kg, po administered as single dose for 24 hrs
Mus musculus [9] = assay: Antihyperglycemic activity in C57BL-6J ob/ob mouse type 2 diabetic model assessed as body weight per mouse at 1000 mg/kg, po administered as single dose for 24 hrs
Mus musculus [10] = assay: Antihyperglycemic activity in C57BL-6J ob/ob mouse type 2 diabetic model assessed as changes in plasma glucose level at 1.09 mmol/kg, po administered as single dose for 24 hrs
Mus musculus [11] = assay: Antihyperglycemic activity in C57BL-6J ob/ob mouse type 2 diabetic model assessed as food intake per mouse at 1000 mg/kg, po administered as single dose
Mus musculus [12] = assay: Antihyperglycemic activity in C57BL-6J ob/ob mouse type 2 diabetic model assessed as changes in plasma glucose level at 1000 mg/kg, po administered as single dose for 3 hrs

| SMILES | Activity (Mus musculus [1]) [mg/dL] | Activity (Mus musculus [2]) [mg/dL] | Activity (Mus musculus [3]) [g] | Activity (Mus musculus [4]) [g] | Activity (Mus musculus [5]) [g] | Activity (Mus musculus [6]) [mg/dL] | Activity (Mus musculus [7]) [mg/dL] | Activity (Mus musculus [8]) [g] | Activity (Mus musculus [9]) [g] | Activity (Mus musculus [10]) [mg/dL] | Activity (Mus musculus [11]) [g] | Activity (Mus musculus [12]) [mg/dL] |
| --- | --- | --- | --- | --- | --- | --- | --- | --- | --- | --- | --- | --- |
| CN(C)C(=N)NC(=N)N [METFORMIN] | -151.8 | 76.1 | 4.5 | 43.2 | – | – | – | – | – | – | – | – |
| Cc1coc2c1[C@](C)(O)C1=C(CCC[C@@H]1C)C2=O [CACALONE] | – | – | – | – | 4.8 | -3 | -13.4 | 41.4 | 45 | 29.5 | 4.6 | -105.1 |
| Cc1coc2c(O)c3c(c(C)c12)[C@@H](C)CCC3 [CACALOL] | – | – | – | – | 4.1 | -124 | -13.4 | 43.5 | 45 | 48.3 | 4.6 | -105.1 |
| Cc1coc2c1[C@@](C)(O)C1=C(CCC[C@@H]1C)C2=O [EPICACALONE] | – | – | – | – | 4 | -42.4 | -13.4 | 43.3 | 45 | 30.9 | 4.6 | -105.1 |
